Source: patent publication US20240317736A1, “DEUTERATED DERIVATIVE AS ATX INHIBITOR, AND APPLICATION THEREOF” (Xizang Haisco Pharmaceutical Co., Ltd., priority 2020, published 2024)
Where two headings read alike, the source gives them in different places.

Legend:
[1] = Pharmacokinetic test in monkeys; format: in vivo, Cynomolgus macaques; details: male, cynomolgus monkey, plasma; for Cmax: read-out: C0 or Cmax
Procedure: Test objective: the pharmacokinetic characteristics and bioavailability of test compounds in monkeys were evaluated.
Test animals: twelve male Cynomolgus macaques, 2.4-5.9 kg, 3-5.5 years old, purchased from Suzhou Xishan Zhongke Laboratory Animal Co., Ltd., with the production license number of SCXK (SU) 2018-0001.
Vehicle for intravenous administration: 5% DMSO+5% Solutol+90% Saline; • vehicle for intragastric administration: 1% DMSO+1% Solutol+98% (0.5% CMC-Na)
(§1) Before and after the administration, 1.0 mL of blood was taken from the veins of the forelimbs and placed in an EDTAK2 centrifuge tube. The blood was centrifuged at 5000 rpm at 4° C. for 10 min, and plasma was collected. Time points for blood collection: 0 min, 5 min, 15 min, 30 min, 1 h, 2 h, 4 h, 6 h, 8 h, 10 h, 12 h and 24 h. Before analysis and detection, all plasma samples were stored at −80° C.

[2] = Pharmacokinetic test in mice; format: in vivo; details: male, C57, mouse, plasma; for Cmax: read-out: C0 or Cmax
Procedure: Test objective: the pharmacokinetic characteristics and bioavailability of test compounds in mice were evaluated.
Test animals: thirty-six C57 male mice, about 25 g, 6-8 weeks old, purchased from Chengdu Ddossy Experimental Animals Co., Ltd., with the production license number of SCXK (CHUAN) 2020-030.
Vehicle for intravenous administration: 5% DMA+5% Solutol+90% Saline; vehicle for intragastric administration: 0.5% MC
as §1, with “0.06” for “1.0”, “orbits under isoflurane anaesthesia” for “veins of the forelimbs”, “10” for “10 h, 12”

[3] = molecular target: hERG potassium channel (Homo sapiens, UniProt Q12809); experiment: cell-based
Procedure: The effect of the example compounds on the current of an hERG potassium channel (human Ether-à-go-go Related Gene potassium channel) was tested by 10 means of an electrophysiological manual patch-clamp method.
HEK293 cell lines stably expressing hERG ion channels were purchased from Invitrogen.
A test compound was firstly dissolved in DMSO and prepared into a stock solution with a final concentration of 30 mM. […] Five working solutions with different gradient concentrations were used to determine the potential inhibitory effect of the compound on the hERG potassium channel and used to fit a dose-response curve and calculate IC50.
A small slide carrying HEK293 cells in a culture dish was placed in a perfusion tank on a micromanipulator. • 2. […] The peak value of the tail current was the magnitude of hERG currents. • 9 The hERG currents used to detect the test compounds were continuously recorded for 120 seconds prior to administration, thereby evaluating the stability of test cells generating hERG currents. […] The inhibitory effects of the test compounds on hERG currents were tested as follows: firstly, the hERG current measured in the extracellular fluid containing 0.1% DMSO was used as a test baseline. […] Upon completion of each perfusion, waiting about 5 min allowed the compounds to be fully acted on the cells, and the hERG currents were recorded synchronously. […]

[4] = Pharmacokinetic test in dogs; format: in vivo, male beagles; details: male, beagle, dog, plasma; for Cmax: read-out: C0 or Cmax
Procedure: Test objective: the pharmacokinetic characteristics and bioavailability of test compounds in dogs were evaluated.
Test animals: twelve male beagles, 8-10 kg, 0.5-1.5 years old, purchased from Beijing Marshall Biotechnology Co. Ltd., with the production license number of SCXK (JING) 2016-001.
Vehicle for intravenous administration: 5% DMSO+5% Solutol+90% Saline; • vehicle for intragastric administration: 1% DMSO+1% Solutol+98% (0.5% MC);
as §1

[5] = molecular target: T1, autocrine motility factor (Homo sapiens, UniProt Q13822); experiment: Inhibition of LPA formation in mixed ex vivo human plasma; format: biochemical; details: 37° C., 2 h
T1 construct: Whole blood was anticoagulated with heparin and centrifuged, and then plasma was collected; from tissue; host or cells: pooled human plasma (heparin-anticoagulated whole blood)
Procedure: Autocrine motility factor is a phosphodiesterase in plasma that converts lysophosphatidylcholine (LPC) to lysophosphatidic acid (LPA). Therefore, the formation of LPA can be used to evaluate the potency of an autocrine motility factor inhibitor. The potency of the compound in mixed ex vivo human plasma was evaluated.
Whole blood was anticoagulated with heparin and centrifuged, and then plasma was collected. 5 μL of gradient-diluted test compounds or DMSO was added to 95 μL of plasma and incubated at 37° C. for 2 h. After that, a stop buffer (40 mM disodium hydrogen phosphate buffer, containing 30 mM of citric acid, pH=4) was added. LPA in plasma was detected by LC-MSMS before and after incubation. In order to determine the concentration of LPA 18:2 or LPA 20:4 in the plasma in study, calibration standard substances at 20000 ng/mL, 10000 ng/mL, 5000 ng/ml, 2000 ng/ml, 1000 ng/mL, 500 ng/mL, 200 ng/ml, 100 ng/mL, 50 ng/ml, 20 ng/mL and 10 ng/ml for LPA 18:2 or LPA 20:4 were prepared by performing serial dilution in butanol. 3 μL of calibration standard solution was added to 27.0 μL of blank plasmas in each 1.5 mL microcentrifuge tube to produce 1× calibration standard substances. 30.0 μL of standard substances or plasma in study was added to each 1.5 mL microcentrifuge tube. 200 μL of butanol (containing 25.0 ng/mL LPA 17:0 for internal control) was added to each 1.5 mL microcentrifuge tube containing the plasma in study or calibration standard substance. Vortex oscillation was performed for 1 min, and centrifugation was performed at 10000 rpm for 10 min. 180 μL of the supernatant was transferred to a 96-well plate, and LC/MS/MS was used together with the standard substance to quantify the concentration of LPA 18:2 in the plasma. In short, 8 μL of the solution was injected, and LC-MS/MS analysis using an ACQUITY UPLC BEH C18 column (2.1×50 mm, 1.7 μm) was performed, wherein mobile phase A [20 mM NH4OAC aqueous solution (0.1% FA)] and mobile phase B [5 mM NH4OAC aqueous solution/0.2% FA in ACN=5:95] were used. The parameters of a mass spectrometer for LPA 18:2 were optimized by means of deprotonation of molecular ions. For LPA 18:2 at m/z 433.2([M−H]−), LPA 20:4 at 457.2, and LPA 18:2 and LPA 20:4 both at m/z 152.8, abundant product ions were obtained. Quantitative data were obtained in a multiple reaction monitoring (MRM) negative electrospray ionization mode.
The inhibition rates of compounds at different concentrations on LPA formation were determined by comparing the changes of LPA levels in incubated and unincubated plasma. The IC50 of the compounds was calculated as a calculation inhibition rate, and the relative concentration at each well=the concentration at each well−the average concentration at baseline.
Inhibition rate %=(average relative concentration at control well−average relative concentration at test well)/average relative concentration at control well×100%. The curve was plotted with the inhibition rates as a y axis and the compound concentrations as an x axis, and fitting was performed by GraphPad Prism7.0 using log (inhibitor) and normalized response (variable slope).

Chain of hERG potassium channel (Q12809 whole entry): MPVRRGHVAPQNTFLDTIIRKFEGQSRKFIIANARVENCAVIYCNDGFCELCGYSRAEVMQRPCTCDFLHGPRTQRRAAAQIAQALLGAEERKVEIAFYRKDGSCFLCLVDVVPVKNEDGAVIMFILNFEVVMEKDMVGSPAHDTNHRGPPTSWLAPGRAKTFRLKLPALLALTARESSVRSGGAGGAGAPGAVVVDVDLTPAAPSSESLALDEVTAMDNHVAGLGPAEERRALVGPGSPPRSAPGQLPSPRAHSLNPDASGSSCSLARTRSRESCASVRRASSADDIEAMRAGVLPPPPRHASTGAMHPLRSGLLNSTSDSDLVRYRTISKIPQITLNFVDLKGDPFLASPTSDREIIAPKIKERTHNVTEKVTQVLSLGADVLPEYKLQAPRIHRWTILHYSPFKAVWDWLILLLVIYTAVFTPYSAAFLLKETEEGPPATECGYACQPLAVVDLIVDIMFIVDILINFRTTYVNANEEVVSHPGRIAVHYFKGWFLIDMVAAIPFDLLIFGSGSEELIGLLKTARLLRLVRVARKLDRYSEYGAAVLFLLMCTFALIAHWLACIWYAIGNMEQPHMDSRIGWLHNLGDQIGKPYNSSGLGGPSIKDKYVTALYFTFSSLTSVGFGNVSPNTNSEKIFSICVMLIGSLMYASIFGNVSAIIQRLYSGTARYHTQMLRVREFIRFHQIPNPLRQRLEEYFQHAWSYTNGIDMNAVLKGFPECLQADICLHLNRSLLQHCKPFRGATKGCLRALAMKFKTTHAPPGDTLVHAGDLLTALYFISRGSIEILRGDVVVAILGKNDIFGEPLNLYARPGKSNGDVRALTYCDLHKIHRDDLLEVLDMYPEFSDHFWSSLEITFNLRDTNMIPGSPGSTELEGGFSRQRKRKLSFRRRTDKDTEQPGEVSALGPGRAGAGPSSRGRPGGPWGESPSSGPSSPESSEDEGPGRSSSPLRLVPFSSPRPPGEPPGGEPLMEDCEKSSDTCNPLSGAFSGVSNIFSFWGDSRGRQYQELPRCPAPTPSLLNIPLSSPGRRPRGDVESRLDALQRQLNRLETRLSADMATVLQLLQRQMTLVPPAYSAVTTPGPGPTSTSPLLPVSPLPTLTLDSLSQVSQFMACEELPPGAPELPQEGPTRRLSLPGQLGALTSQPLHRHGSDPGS

[2H]C([2H])([2H])N(c1nc(-c2ccc(F)cc2)c(C#N)s1)c1c(CC)nn2cc(F)c(N3CCN(CC(=O)N4CC(O)C4)CC3)cc12 [Compound 3, 2-((2-ethyl-6-fluoro-5-(4-(2-(3-hydroxyazetidin-1-yl)-2-oxoethyl)piperazin-1-yl)pyrazolo[1,5-a]pyridin-3-yl)(methyl-d3)amino)-4-(4-fluorophenyl)thiazole-5-carbonitrile]
AUC ([1]; IV 1 mg/kg): 2010 ± 621 ng·h/mL | half-life ([1]; IV 1 mg/kg): 178 ± 60 min | Cmax ([1]; IV 1 mg/kg): 1040 ± 116 ng/mL | AUC ([1]; PO 5 mg/kg): 3120 ± 492 ng·h/mL | Tmax ([1]; PO 5 mg/kg): 1.33 ± 0.58 h | half-life ([1]; PO 5 mg/kg): 241 ± 35.4 min | Cmax ([1]; PO 5 mg/kg): 657 ± 170 ng/mL | AUC ([2]; IV 1 mg/kg): 1490 ng·h/mL | half-life ([2]; IV 1 mg/kg): 93.6 min | Cmax ([2]; IV 1 mg/kg): 1110 ng/mL | AUC ([2]; PO 10 mg/kg): 9600 ng·h/mL | Tmax ([2]; PO 10 mg/kg): 15 min | half-life ([2]; PO 10 mg/kg): 128 min | bioavailability ([2]; PO 10 mg/kg vs IV 1 mg/kg): 64.5% | Cmax ([2]; PO 10 mg/kg): 1300 ng/mL | IC50 [3]: 23.1 µM | AUC ([4]; IV 1 mg/kg): 6840 ± 883 ng·h/mL | half-life ([4]; IV 1 mg/kg): 418 ± 90 min | Cmax ([4]; IV 1 mg/kg): 1490 ± 451 ng/mL | AUC ([4]; PO 2 mg/kg): 15900 ± 2980 ng·h/mL | Tmax ([4]; PO 2 mg/kg): 1.67 ± 0.58 h | half-life ([4]; PO 2 mg/kg): 431 ± 45 min | bioavailability ([4]; PO 2 mg/kg vs IV 1 mg/kg): 116 ± 22% | Cmax ([4]; PO 2 mg/kg): 1620 ± 176 ng/mL | IC50 ([5]; LPA 18:2 by LC-MS/MS, read-out: IC50 for inhibiting LPA formation (18:2)): 42.7 nM | IC50 ([5]; LPA 20:4 by LC-MS/MS, read-out: IC50 for inhibiting LPA formation (20:4)): 44.5 nM
